Test system: MCH receptors
Experiment: MCH receptor activity class (method not given)
[1] = class 1-3 by percent of control at 10^-7 M or IC50
[2] = MCH receptor, class by percent of control at 10^-7 M or IC50
[3] = class by percent of control at 10^-7 M or IC50
[4] = MCH receptor activity class 1-3 (percent of control at 10^-7 M or IC50)

For CN(C)c1ccnc(N[C@H]2CC[C@@H](CNC(=O)c3cc(C(C)(C)C)nn3Cc3ccccc3)CC2)n1 [compound 430], which class [1] is on record?
Its class is 3 (Class 3 The value of percent of control at 10^−7 M was more than 60% or the value of IC50 was more than 200 nM.).

How did the class [1] turn out when CN(C)c1nc(N[C@H]2CC[C@@H](CNC(=O)c3ccc4nonc4c3)CC2)nc2c1CCCC2 [compound 585] was run?
Its class is 3 (Class 3 The value of percent of control at 10^−7 M was more than 60% or the value of IC50 was more than 200 nM.).

With CN(C)c1cc(N[C@H]2CC[C@@H](NC(=O)Cc3ccccc3Br)CC2)nc2ccccc12 [compound 80] as the molecule, how does the class [2] read?
The class was 3 (Class 3 The value of percent of control at 10^−7 M was more than 60% or the value of IC50 was more than 200 nM.).

Which class [2] does the source give for CN(C)c1nc(N[C@H]2CC[C@@H](NC(=S)NCc3ccc(F)cc3)CC2)nc2c1CCCC2 [compound 2015] here?
Its class is 3 (Class 3 The value of percent of control at 10^−7 M was more than 60% or the value of IC50 was more than 200 nM.).

COc1cc(C(=O)N[C@H]2CC[C@@H](Nc3nccc(N(C)C)n3)CC2)ccc1[N+](=O)[O-] [compound 829, N-(cis-4-{[4-(dimethylamino)pyrimidin-2-yl]amino}cyclohexyl)-3-methoxy-4-nitrobenzamide] was tested. Which class [3] did it give?
The class was 1 (Class 1: The value of percent of control at 10^−7 M was less than 40% or the value of IC50 was less than 50 nM.).

COc1c(Br)cc(Br)cc1CNC[C@H]1CC[C@@H](Nc2nc3c(c(N(C)C)n2)CCCC3)CC1 [compound 1413] was tested. Which class [3] did it give?
The class was 1 (Class 1: The value of percent of control at 10^−7 M was less than 40% or the value of IC50 was less than 50 nM.).

For CCC(Oc1ccccc1)C(=O)N[C@H]1CC[C@@H](Nc2cc(N(C)C)c3ccccc3n2)CC1 (relative stereo) [compound 48, N-(cis-4-{[4-(dimethylamino)quinolin-2-yl]amino}cyclohexyl)-2-phenoxybutanamide], which class [2] is on record?
Its class is 1 (Class 1: The value of percent of control at 10^−7 M was less than 40% or the value of IC50 was less than 50 nM.).

How did the class (activity class per percent of control at 10^-7 M or IC50) turn out when CCc1cccc2c(C(CC(=O)c3ccc(C(C)(C)C)cc3)C(=O)N[C@H]3CC[C@@H](Nc4nc5c(c(N(C)C)n4)CCCC5)CC3)c[nH]c12 (relative stereo) [compound 996] was run?
Its class is 1 (Class 1: The value of percent of control at 10^−7 M was less than 40% or the value of IC50 was less than 50 nM.).

How did the class [3] turn out when Cc1cccc(C(C)(C)C)c1NC(=O)N[C@H]1CC[C@@H](Nc2nccc(N(C)C)n2)CC1 [compound 2203] was run?
Its class is 3 (Class 3 The value of percent of control at 10^−7 M was more than 60% or the value of IC50 was more than 200 nM.).

How did the class [1] turn out when CN(C)c1nc(N[C@H]2CC[C@@H](CNC(=O)Cc3ccc(Cl)cc3)CC2)nc2c1CCCC2 [compound 590] was run?
The class was 3 (Class 3 The value of percent of control at 10^−7 M was more than 60% or the value of IC50 was more than 200 nM.).

CN(C)c1nc(N[C@H]2CC[C@@H](CNC(=O)c3cccc(C(F)(F)F)c3F)CC2)nc2c1CCCC2 [compound 626] was tested. Which class [3] did it give?
Its class is 3 (Class 3 The value of percent of control at 10^−7 M was more than 60% or the value of IC50 was more than 200 nM.).

With CN(C)c1ccnc(N[C@H]2CC[C@@H](CNC(=O)c3cc(Cl)sc3Cl)CC2)n1 [compound 428] as the molecule, how does the class [1] read?
Its class is 3 (Class 3 The value of percent of control at 10^−7 M was more than 60% or the value of IC50 was more than 200 nM.).

Cc1c(Cl)cccc1NC(=O)N[C@H]1CC[C@@H](Nc2nccc(N(C)C)n2)CC1 [compound 2205] was tested. Which class [3] did it give?
The class was 3 (Class 3 The value of percent of control at 10^−7 M was more than 60% or the value of IC50 was more than 200 nM.).

With CN(C)c1ccnc(N[C@H]2CC[C@@H](CNCc3c[nH]nc3-c3ccc(C(F)(F)F)cc3)CC2)n1 [compound 1256] as the molecule, how does the class [3] read?
Its class is 1 (Class 1: The value of percent of control at 10^−7 M was less than 40% or the value of IC50 was less than 50 nM.).

For COC(=O)c1cccc(NC(=S)N[C@H]2CC[C@@H](Nc3nc4c(c(N(C)C)n3)CCCC4)CC2)c1 [compound 1762], which class [3] is on record?
The class was 3 (Class 3 The value of percent of control at 10^−7 M was more than 60% or the value of IC50 was more than 200 nM.).

Which class [3] does the source give for CCOc1c(Br)cc(Br)cc1CNC[C@H]1CC[C@@H](Nc2nccc(N(C)C)n2)CC1 [compound 1325] here?
The class was 2 (Class 2: The value of percent of control at 10^−7 M was from 40% to 60% or the value of IC′50 was from 50 nM to 200 nM.).

Which class (class by percent of control at 10^−7 M or IC50) does the source give for Cc1cc(N(C)C)nc(NC[C@H]2CC[C@@H](NC(=O)c3ccc(Cl)c(Cl)c3)CC2)n1 [compound 2749] here?
The class was 2 (Class 2: The value of percent of control at 10^−7 M was from 40% to 60% or the value of IC′50 was from 50 nM to 200 nM.).

How did the class [2] turn out when CN(C)c1cc(N[C@H]2CC[C@@H](NC(=O)C3(c4ccc(Cl)cc4)CCCC3)CC2)nc2ccccc12 [compound 99] was run?
Its class is 2 (Class 2: The value of percent of control at 10^−7 M was from 40% to 60% or the value of IC′50 was from 50 nM to 200 nM.).

CN(C)c1ccnc(N[C@H]2CC[C@@H](CNC(=O)CCc3ccccc3O)CC2)n1 [compound 931] was tested. Which class [3] did it give?
Its class is 3 (Class 3 The value of percent of control at 10^−7 M was more than 60% or the value of IC50 was more than 200 nM.).

Which class [3] does the source give for CN(C)c1ccnc(N[C@H]2CC[C@@H](NC(=O)Nc3ccc(Oc4ccccc4)cc3)CC2)n1 [compound 2222] here?
Its class is 3 (Class 3 The value of percent of control at 10^−7 M was more than 60% or the value of IC50 was more than 200 nM.).

CCc1cccc(C)c1NC(=S)N[C@H]1CC[C@@H](Nc2cc(N(C)C)c3ccccc3n2)CC1 [compound 2280] was tested. Which class [3] did it give?
Its class is 3 (Class 3 The value of percent of control at 10^−7 M was more than 60% or the value of IC50 was more than 200 nM.).

How did the class [4] turn out when CN(C)c1ccnc(N[C@H]2CC[C@@H](CNC(=O)Nc3ccc(F)cc3F)CC2)n1 [compound 2407, N-(2,4-difluorophenyl)-N′-[(cis-4-{[4-(dimethylamino)pyrimidin-2-yl]amino}cyclohexyl)methyl]urea] was run?
The class was 2 (Class 2: The value of percent of control at 10^−7 M was from 40% to 60% or the value of IC′50 was from 50 nM to 200 nM.).

CN(C)c1nc(N[C@H]2CC[C@@H](CNC(=O)CSc3ccccc3)CC2)nc2c1CCCC2 [compound 625] was tested. Which class [3] did it give?
The class was 3 (Class 3 The value of percent of control at 10^−7 M was more than 60% or the value of IC50 was more than 200 nM.).

CN(C)c1ccnc(N[C@H]2CC[C@@H](CNC(=O)Nc3ccccc3Cl)CC2)n1 [compound 2405] was tested. Which class [4] did it give?
Its class is 3 (Class 3 The value of percent of control at 10^−7 M was more than 60% or the value of IC50 was more than 200 nM.).

CN(C)c1cc(N[C@H]2CC[C@@H](NC(=O)c3ccc4nonc4c3)CC2)nc2ccccc12 [compound 23, N-(cis-4-{[4-(dimethylamino)quinolin-2-yl]amino}cyclohexyl)-2,1,3-benzoxadiazole-5-carboxamide] was tested. Which class [2] did it give?
Its class is 1 (Class 1: The value of percent of control at 10^−7 M was less than 40% or the value of IC50 was less than 50 nM.).

How did the class [4] turn out when Cc1cccc([N+](=O)[O-])c1NC(=O)NC[C@H]1CC[C@@H](Nc2nccc(N(C)C)n2)CC1 [compound 2447, N-[(cis-4-{[4-(dimethylamino)pyrimidin-2-yl]amino}cyclohexyl)methyl]-N′-(2-methyl-6-nitrophenyl)urea] was run?
Its class is 2 (Class 2: The value of percent of control at 10^−7 M was from 40% to 60% or the value of IC′50 was from 50 nM to 200 nM.).

Which class [3] does the source give for CN(C)c1cc(N[C@H]2CC[C@@H](NC(=O)c3cn(S(=O)(=O)c4ccccc4)c4ccccc34)CC2)nc2ccccc12 [compound 769] here?
The class was 3 (Class 3 The value of percent of control at 10^−7 M was more than 60% or the value of IC50 was more than 200 nM.).

For CCOc1cc(CN[C@H]2CC[C@@H](Nc3nccc(N(C)C)n3)CC2)ccc1OC [compound 1217], which class [3] is on record?
The class was 3 (Class 3 The value of percent of control at 10^−7 M was more than 60% or the value of IC50 was more than 200 nM.).

Reference: patent US20050197350A1, “Novel quinoline, tetrahydroquinazoline, and pyrimidine derivatives and methods of treatment related to the use thereof” (TAISHO PHARMACEUTICAL CO., LTD., priority 2003, published 2005)
